Measured values: patent publication US20120010075A1 (priority 2009, published 2012)
Like-named read-outs stand apart in the source and are kept apart here.

Legend:
[1] = tested on: Leptosphaeria nodorum (LEPTNO); test: In vitro fungitoxicity of hydrazones with and without copper towards Leptosphaeria nodorum (Example 26); type: cell-based; conditions: 72 h at 25° C.; for inhibition of growth at 0.05 µg/mL: Parastagonospora nodorum, 72 h, read-out: LEPTNO % Inhn. Minus Copper Observed; for inhibition of growth at 0.05 µg/mL / LEPTNO % Inhn. Minus Copper Observed: copper-minus medium
Phytophthora infestans = type: in vivo, Phytophthora infestans on tomato; conditions: applied 24 h before inoculation, assessed 7 days after inoculation
[2] = test compound Concn. 0.05 μg/mL
[3] = copper-plus medium (CuCl2 10 μM), test compound Concn. 0.05 μg/mL
[4] = hydrazone 50 ppm with 50 μM CuCl2.2H2O, tomato late blight
[5] = compound 0.05 μg/mL, copper-plus medium (CuCl2.2H2O)
[6] = hydrazone 50 ppm + 50 μM CuCl2.2H2O, tomato

Structure (SMILES) | inhibition of growth at 0.05 µg/mL [1, 2] [%] | LEPTNO % Inhn. Plus Copper Observed [1, 3] [%] | TLB % Control (Phytophthora infestans; [4]) [%] | melting point [°C] | inhibition of growth at 0.05 µg/mL ([1]; compound 0.05 μg/mL) [%] | LEPTNO % Inhn. Plus Copper Observed [1, 5] [%] | TLB % Control (Phytophthora infestans; [6]) [%] | LEPTNO % Inhn. Minus Copper Observed ([1]; compound 0.05 μg/mL) [%]
O=C(N/N=C/c1cc(Cl)cc(C(F)(F)F)c1O)c1ccccc1C(F)(F)F [Example 385] | 5.4 | 94.6 | 100.0 | 203 to 204 |  |  |  | 
C/C(=N\NC(=O)c1ccc(C(F)(F)F)cc1)c1cc(Br)ccc1O [Example 518] | 24.2 | 97.4 | 58.0 | 272 to 280 |  |  |  | 
COc1ccc(C(=O)N/N=C(\C)c2c(O)cc(OC)cc2OC)cc1 [Example 569] | 6.1 | 15.8 | 70.0 | 143 to 146 |  |  |  | 
O=C(N/N=C/c1cc(Br)ccc1O)c1cc(Cl)ccc1Cl [Example 186] |  |  |  | 196 to 202 | 0 | 97.6 | 61.8 | 
O=C(N/N=C/c1cc(Cl)cc(Br)c1O)c1cccc([N+](=O)[O-])c1 [Example 416] | 4.3 | 97.5 | 93.0 | 167 to 226 |  |  |  | 
O=C(N/N=C/c1cc(C(F)(F)F)cc(C(F)(F)F)c1O)c1ccccc1O [Example 340] | 18 | 96.2 | 95.0 | 231 to 235 |  |  |  | 
COc1cc(O)c(/C(C)=N/NC(=O)c2cccc(C)c2)c(OC)c1 [Example 585] | 6.3 | 86.3 | 62.0 | 207 to 209 |  |  |  | 
O=C(N/N=C/c1cc(Cl)cc(Cl)c1O)c1cccc([N+](=O)[O-])c1 [Example 248] |  |  |  | 234 to 237 | 12.4 | 96.3 | 98.0 | 
COc1ccc(C(=O)N/N=C(\C)c2cccc(OC)c2O)cc1 [Example 464] | 6.7 | 94.8 | 93.0 | 140 to 141 |  |  |  | 
COc1cc(O)c(/C(C)=N/NC(=O)c2cccc(Cl)c2)c(OC)c1 [Example 567] | 2.5 | 42.3 | 14.0 | 206 to 215 |  |  |  | 
COc1ccc(/C(C)=N/NC(=O)c2ccccc2O)c(O)c1OC [Example 562] | 1.4 | 97.3 | 91.0 | 279 to 297 |  |  |  | 
O=C(N/N=C/c1cccc(Cl)c1O)c1ccc(F)cc1 [Example 426] | 34.8 | 97.3 | 98.0 | 194 to 198 |  |  |  | 
O=C(N/N=C/c1c(O)cccc1F)c1ccccc1 [Example 245] |  |  |  | 216 to 218 | 0 | 96.7 | 52.7 | 
Cc1cc(C)cc(C(=O)N(/N=C/c2cc(Cl)cc(Cl)c2O)C(C)(C)C)c1 [Example 211] |  |  |  | 220 to 227 | 7 | 97.1 | 16.0 | 
C/C(=N\NC(=O)c1ccc(C(F)(F)F)cc1)c1cc(C(F)(F)F)ccc1O [Example 536] | 21.1 | 93.4 | 24.0 | 228 to 234 |  |  |  | 
C/C(=N\NC(=O)c1ccc(C)cc1C)c1ccccc1O [Example 33] |  |  |  | 188 to 190 |  | 93.1 | 50.9 | 0.0
C/C(=N\NC(=O)c1cc2ccccc2cc1O)c1cc(Cl)cc(Cl)c1O [Example 564] | 17.4 | 94.2 | 1.3 | 312 to 315 |  |  |  | 
C/C(=N\NC(=O)c1ccc(C(F)(F)F)cc1)c1cc(Cl)cc(Cl)c1O [Example 470] | 4 | 98.0 | 93.0 | 237 to 238 |  |  |  | 
COc1ccc(C(=O)N/N=C(\C)c2ccc(OC)cc2O)cc1 [Example 482] | 0 | 96.4 | 66.0 | 226 to 227 |  |  |  | 
C/C(=N\NC(=O)c1ccc(C(F)(F)F)cc1)c1cc(Br)cc(Br)c1O [Example 548] | 6.7 | 97.5 | 98.0 | 255 to 257 |  |  |  | 

Structure (SMILES) | inhibition of growth at 0.05 µg/mL [1, 2] [%] | LEPTNO % Inhn. Plus Copper Observed [1, 3] [%] | TLB % Control (Phytophthora infestans; [4]) [%] | melting point [°C] | inhibition of growth at 0.05 µg/mL ([1]; compound 0.05 μg/mL) [%] | LEPTNO % Inhn. Plus Copper Observed [1, 5] [%] | TLB % Control (Phytophthora infestans; [6]) [%] | LEPTNO % Inhn. Minus Copper Observed ([1]; compound 0.05 μg/mL) [%]
O=C(N/N=C/c1cc(C(F)(F)F)cc(Cl)c1O)c1cccc([N+](=O)[O-])c1 [Example 327] | 1.2 | 95.7 | 98.0 | 237 to 238 |  |  |  | 
C/C(=N\NC(=O)c1ccc(Br)cc1)c1cc(C(F)(F)F)ccc1O [Example 535] | 10.1 | 97.7 | 56.0 | 256 to 259 |  |  |  | 
O=C(N/N=C/c1c(Cl)ccc(Cl)c1O)c1ccccc1C(F)(F)F [Example 373] | 0 | 97.3 | 90.0 | 221 to 222 |  |  |  | 
C/C(=N\NC(=O)c1ccc(C(F)(F)F)cc1)c1cccc([N+](=O)[O-])c1O [Example 523] | 7 | 97.7 | 92.0 | 267 to 278 |  |  |  | 
O=C(N/N=C/c1cc(Cl)cc(Cl)c1O)c1ccc(C(F)(F)F)cc1 [Example 81] |  |  |  | 238 to 240 | 2.4 | 96.1 | 97.0 | 
COc1ccc(C(=O)N/N=C(\C)c2ccc(OC)c(OC)c2O)cc1 [Example 558] | 3.8 | 95.7 | 80.0 | 230 to 232 |  |  |  | 
C/C(=N\NC(=O)c1ccccc1)c1ccc(Cl)cc1O [Example 251] |  |  |  | 236 to 237 | 3.5 | 98.1 | 33.0 | 
COc1ccc(O)c(/C(C)=N/NC(=O)c2ccccc2)c1 [Example 261] |  |  |  | 150 to 152 | 2.7 | 97.9 | 10.0 | 
O=C(N/N=C/c1cc(Cl)cc(Cl)c1O)c1cc(Cl)cc(Cl)c1 [Example 79] |  |  |  | 248 to 249 | 12.2 | 97.1 | 84.4 | 
Cc1ccc(C(=O)N/N=C(\CCc2ccccc2)c2ccccc2O)c(C)c1 [Example 35] |  |  |  | 162 to 166 |  | 96.5 | 0.0 | 3.8
O=C(N/N=C/c1cc(Cl)ccc1O)c1ccc([N+](=O)[O-])cc1 [Example 12] |  |  |  | 259 to 262 | 0.5 | 97.4 | 94.0 | 
C/C(=N\NC(=O)c1ccccc1[N+](=O)[O-])c1cc(Cl)cc(Cl)c1O [Example 142] |  |  |  | 250 to 253 | 1.1 | 98.2 | 79.0 | 
C/C(=N\NC(=O)c1cccc(Oc2ccccc2)c1)c1ccccc1O [Example 47] |  |  |  | 178 to 180 | 0 | 97.1 | 33.0 | 
CC/C(=N\NC(=O)c1ccc(C)cc1C)c1ccccc1O [Example 34] |  |  |  | 175 to 176 |  | 97.8 | 68.4 | 0.0
CC/C(=N\NC(=O)c1ccc(C)cc1C)c1ccccc1O [Example 30] |  |  |  | 159 to 160 | 0 | 97.0 | 40.7 | 
Cc1ccc(C(=O)N/N=C/c2c(O)cccc2Cl)cc1 [Example 399] | 5.8 | 97.1 | 88.0 | 250 to 252 |  |  |  | 
O=C(N/N=C/c1cc(Br)cc(Br)c1O)c1ccc2ccccc2c1 [Example 111] |  |  |  | 237 to 239 | 16.8 | 97.4 | 63.6 | 
COc1ccc(/C(C)=N/NC(=O)c2cccc(C)c2)c(O)c1OC [Example 553] | 0 | 93.2 | 88.0 | 158 to 162 |  |  |  | 
O=C(N/N=C/c1cc(Cl)cc(Br)c1O)c1cccc(F)c1 [Example 414] | 14.6 | 97.9 | 90.0 | 209 to 215 |  |  |  | 
O=C(N/N=C/c1cccc(C(F)(F)F)c1O)c1ccccc1C(F)(F)F [Example 353] | 0 | 94.8 | 81.0 | 169 to 171 |  |  |  | 
